Experimental data from US20180320217A1, “METHODS FOR SAMPLING AND MEASURING ORAL LAVAGE PROTEINS” (The Procter & Gamble Company, priority 2017, published 2018).
Values joined by “and” are separate entries in the source; they are usually repeats but may differ in a detail not shown here. Identical values can stand only once. “Also recorded” adds a separate entry of the source.

How the values were obtained:
diaphorase [1] = assay: Formation of formazan dyes: NADH and diaphorase, absence of malate (TABLE 7); format: biochemical, Clostridium kluyveri; details: NADH and diaphorase, absence of malate
diaphorase [2] = assay: Formation of formazan dyes: NADH, diaphorase and malate (TABLE 8); format: biochemical, Clostridium kluyveri; details: NADH, diaphorase and malate
[3] = test system: Malate dehydrogenase and diaphorase; assay: Formation of formazan dyes: Malate dehydrogenase and diaphorase, absence of malate (TABLE 9); format: biochemical, pig heart
[4] = test system: Malate dehydrogenase and diaphorase; assay: Formation of formazan dyes: Malate dehydrogenase, diaphorase and malate (TABLE 10); format: biochemical, pig heart
oral lavage [5] = assay: Formation of formazan dyes: oral lavage and diaphorase, not malate (TABLE 11); format: biochemical, human
oral lavage [6] = assay: Formation of formazan dyes: oral lavage, malate and diaphorase (TABLE 12); format: biochemical, human; details: oral lavage, malate and diaphorase
diaphorase [7] = assay: Formation of formazan dyes: only diaphorase, not malate (TABLE 13); format: biochemical, Clostridium kluyveri; details: mean of three experiments
diaphorase [8] = assay: Formation of formazan dyes: only diaphorase and malate (TABLE 14); format: biochemical, Clostridium kluyveri; details: mean of three experiments
[9] = Formation of formazan dyes: NADH and 1-methoxy PMS, absence of malate (TABLE 15); format: biochemical
[10] = Formation of formazan dyes: NADH, malate and 1-methoxy PMS (TABLE 16); format: biochemical; details: monosodium salt
oral lavage [11] = assay: Formation of formazan dyes: oral lavage and 1-Methoxy PMS, absence of malate (TABLE 19); format: biochemical, human; details: monosodium salt
[12] = Formation of formazan dyes: control buffer and 1-Methoxy PMS, absence of malate (TABLE 21); format: biochemical; details: monosodium salt
[13] = Formation of formazan dyes: control buffer, malate and 1-Methoxy PMS (TABLE 22); format: biochemical
diaphorase [14] = assay: Effect of concentrations of tetrazolium salts on formation of formazan dyes (FIGS. 4A-4G); format: biochemical; details: 15 mM NADH+H, 20 μg diaphorase, pH 7.5; FIGS. 4A to 4G
Procedure: On the idea that higher concentrations of tetrazolium salts in the assay buffer would likely result in more formazan dyes in the reaction, various concentrations of tetrazolium salts were added to a reaction buffer and the formation of formazan dyes were measured at 0, 30 and 60 minutes. […] The reactions were performed at room temperature. Absorbance was taken at 0, 30 and 60 minutes.

Malate dehydrogenase = target: T1, Malate dehydrogenase (Sus scrofa, UniProt P00346); assay: Formation of formazan dyes: Malate dehydrogenase and 1-Methoxy PMS, absence of malate (TABLE 17); format: biochemical, pig heart; set-up: L-malate dehydrogenase (pig heart); purchased Sigma-Aldrich 10127248001 / 10127914001
T1 sequence (P00346 25-338): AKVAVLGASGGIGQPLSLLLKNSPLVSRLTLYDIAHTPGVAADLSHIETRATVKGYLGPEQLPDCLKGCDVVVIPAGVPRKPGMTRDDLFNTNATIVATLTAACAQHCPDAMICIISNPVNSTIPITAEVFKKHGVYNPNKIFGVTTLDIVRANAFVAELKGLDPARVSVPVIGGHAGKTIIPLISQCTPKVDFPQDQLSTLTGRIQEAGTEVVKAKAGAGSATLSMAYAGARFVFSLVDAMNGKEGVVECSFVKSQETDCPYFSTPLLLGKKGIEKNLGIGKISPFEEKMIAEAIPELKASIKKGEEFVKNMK

Question: With `COc1cc([N+](=O)[O-])ccc1-[n+]1nc(-c2ccc(S(=O)(=O)[O-])cc2S(=O)(=O)[O-])nn1-c1ccc([N+](=O)[O-])cc1.[Na+]` [WST-8, 5-(2,4-disulfophenyl)-3-(2-methoxy-4-nitrophenyl)-2-(4-nitrophenyl)-2H-tetrazolium, inner salt, monosodium salt] as the compound, how does the “Formation of formazan dyes, absorbance, Means 0 h” value (shortened to “Formation … Means 0 h”) (diaphorase [1]; 0 h) read?
Answer: 3.54

Question: What about the “Formation of formazan dyes, absorbance, Means 1 h” value (“Formation … Means 1 h” below) (diaphorase [1]; 1 h) of the same compound?
Answer: 3.72

Question: And the “Formation of formazan dyes, absorbance, Means 2 h” value (from here on “Formation … Means 2 h”) (diaphorase [1]; 2 h)?
Answer: 3.77

Question: What about the “Formation of formazan dyes, absorbance, Means 3 h” value (shortened to “Formation … Means 3 h”) (diaphorase [1]; 3 h) of the same compound?
Answer: 3.77

Question: And the “Formation of formazan dyes, absorbance, Means 4 h” value (“Formation … Means 4 h” below) (diaphorase [1]; 4 h)?
Answer: 3.63

Question: What about the “Formation of formazan dyes, absorbance, Means 6 h” value (from here on “Formation … Means 6 h”) (diaphorase [1]; 6 h) of the same compound?
Answer: 3.64

Question: What about the “Formation of formazan dyes, absorbance, Means 8 h” value (shortened to “Formation … Means 8 h”) (diaphorase [1]; 8 h) of the same compound?
Answer: 3.66

Question: And the “Formation of formazan dyes, absorbance, Means 10 h” value (“Formation … Means 10 h” below) (diaphorase [1]; 10 h)?
Answer: 3.65

Question: What about the “Formation of formazan dyes, absorbance, Means 12 h” value (shortened to “Formation … Means 12 h”) (diaphorase [1]; 12 h) of the same compound?
Answer: 3.67

Question: And the “Formation … Means 0 h” value (diaphorase [2]; 0 h)?
Answer: 3.06

Question: What about the “Formation … Means 1 h” value (diaphorase [2]; 1 h) of the same compound?
Answer: 3.36

Question: And the “Formation … Means 2 h” value (diaphorase [2]; 2 h)?
Answer: 3.47

Question: What about the “Formation … Means 3 h” value (diaphorase [2]; 3 h) of the same compound?
Answer: 3.53

Question: And the “Formation … Means 4 h” value (diaphorase [2]; 4 h)?
Answer: 3.50

Question: And the “Formation … Means 6 h” value (diaphorase [2]; 6 h)?
Answer: 3.54

Question: And the “Formation … Means 8 h” value (diaphorase [2]; 8 h)?
Answer: 3.54

Question: What about the “Formation … Means 10 h” value (diaphorase [2]; 10 h) of the same compound?
Answer: 3.51

Question: What about the “Formation … Means 12 h” value (diaphorase [2]; 12 h) of the same compound?
Answer: 3.45

Question: What about the “Formation … Means 0 h” value ([3]; Malate dehydrogenase and diaphorase, absence of malate, 0 h) of the same compound?
Answer: 1.13

Question: What about the “Formation … Means 1 h” value ([3]; Malate dehydrogenase and diaphorase, absence of malate, 1 h) of the same compound?
Answer: 1.84

Question: And the “Formation … Means 2 h” value ([3]; Malate dehydrogenase and diaphorase, absence of malate, 2 h)?
Answer: 2.15

Question: And the “Formation … Means 3 h” value ([3]; Malate dehydrogenase and diaphorase, absence of malate, 3 h)?
Answer: 2.32

Question: What about the “Formation … Means 4 h” value ([3]; Malate dehydrogenase and diaphorase, absence of malate, 4 h) of the same compound?
Answer: 2.41

Question: What about the “Formation … Means 6 h” value ([3]; Malate dehydrogenase and diaphorase, absence of malate, 6 h) of the same compound?
Answer: 2.62

Question: What about the “Formation … Means 8 h” value ([3]; Malate dehydrogenase and diaphorase, absence of malate, 8 h) of the same compound?
Answer: 2.72

Question: And the “Formation … Means 10 h” value ([3]; Malate dehydrogenase and diaphorase, absence of malate, 10 h)?
Answer: 2.80

Question: And the “Formation … Means 12 h” value ([3]; Malate dehydrogenase and diaphorase, absence of malate, 12 h)?
Answer: 2.89

Question: What about the “reduction of tetrazolium dye in the absence of substrate malate” value ([3]; malate dehydrogenase and diaphorase (TABLE 9)) of the same compound?
Answer: partially reduced

Question: What about the “Formation … Means 0 h” value ([4]; Malate dehydrogenase, diaphorase and malate, 0 h) of the same compound?
Answer: 1.13

Question: What about the “Formation … Means 1 h” value ([4]; Malate dehydrogenase, diaphorase and malate, 1 h) of the same compound?
Answer: 1.93

Question: And the “Formation … Means 2 h” value ([4]; Malate dehydrogenase, diaphorase and malate, 2 h)?
Answer: 2.36

Question: What about the “Formation … Means 3 h” value ([4]; Malate dehydrogenase, diaphorase and malate, 3 h) of the same compound?
Answer: 2.65

Question: And the “Formation … Means 4 h” value ([4]; Malate dehydrogenase, diaphorase and malate, 4 h)?
Answer: 2.86

Question: What about the “Formation … Means 6 h” value ([4]; Malate dehydrogenase, diaphorase and malate, 6 h) of the same compound?
Answer: 3.12

Question: What about the “Formation … Means 8 h” value ([4]; Malate dehydrogenase, diaphorase and malate, 8 h) of the same compound?
Answer: 3.26

Question: What about the “Formation … Means 10 h” value ([4]; Malate dehydrogenase, diaphorase and malate, 10 h) of the same compound?
Answer: 3.30

Question: What about the “Formation … Means 12 h” value ([4]; Malate dehydrogenase, diaphorase and malate, 12 h) of the same compound?
Answer: 3.28

Question: And the “conversion to reduced formazan dyes” value ([4]; malate dehydrogenase, diaphorase and malate (TABLE 10), monosodium salt)?
Answer: converted to reduced formazan dyes in a time-dependent fashion; also recorded: able to catalyze the reduction

Question: What about the “Formation … Means 0 h” value (oral lavage [5]; oral lavage and diaphorase, not malate, 0 h) of the same compound?
Answer: 0.59

Question: And the “Formation … Means 1 h” value (oral lavage [5]; oral lavage and diaphorase, not malate, 1 h)?
Answer: 0.83

Question: What about the “Formation … Means 2 h” value (oral lavage [5]; oral lavage and diaphorase, not malate, 2 h) of the same compound?
Answer: 0.87

Question: What about the “Formation … Means 3 h” value (oral lavage [5]; oral lavage and diaphorase, not malate, 3 h) of the same compound?
Answer: 0.84

Question: What about the “Formation … Means 4 h” value (oral lavage [5]; oral lavage and diaphorase, not malate, 4 h) of the same compound?
Answer: 0.82

Question: What about the “Formation … Means 6 h” value (oral lavage [5]; oral lavage and diaphorase, not malate, 6 h) of the same compound?
Answer: 0.88

Question: What about the “Formation … Means 8 h” value (oral lavage [5]; oral lavage and diaphorase, not malate, 8 h) of the same compound?
Answer: 1.00

Question: And the “Formation … Means 10 h” value (oral lavage [5]; oral lavage and diaphorase, not malate, 10 h)?
Answer: 1.00

Question: And the “Formation … Means 12 h” value (oral lavage [5]; oral lavage and diaphorase, not malate, 12 h)?
Answer: 1.01

Question: And the “reduction to formazan dyes by pooled oral lavage” value (oral lavage [5]; pooled oral lavage of high bleeder group, diaphorase, no added malate (TABLE 11))?
Answer: partially reduced to formazan dyes

Question: And the “Formation … Means 0 h” value (oral lavage [6]; 0 h)?
Answer: 0.51

Question: And the “Formation … Means 1 h” value (oral lavage [6]; 1 h)?
Answer: 0.70

Question: What about the “Formation … Means 2 h” value (oral lavage [6]; 2 h) of the same compound?
Answer: 0.80

Question: What about the “Formation … Means 3 h” value (oral lavage [6]; 3 h) of the same compound?
Answer: 0.84

Question: And the “Formation … Means 4 h” value (oral lavage [6]; 4 h)?
Answer: 0.85

Question: What about the “Formation … Means 6 h” value (oral lavage [6]; 6 h) of the same compound?
Answer: 0.91

Question: What about the “Formation … Means 8 h” value (oral lavage [6]; 8 h) of the same compound?
Answer: 1.05

Question: What about the “Formation … Means 10 h” value (oral lavage [6]; 10 h) of the same compound?
Answer: 1.09

Question: What about the “Formation … Means 12 h” value (oral lavage [6]; 12 h) of the same compound?
Answer: 1.33

Question: What about the “Absorbance, formation of formazan dyes (Means)” value (“Absorbance, formation” for short) (diaphorase [7]; 0 h) of the same compound?
Answer: 0.22

Question: And the “Absorbance, formation” value (diaphorase [7]; 1 h)?
Answer: 0.38

Question: And the “Absorbance, formation” value (diaphorase [7]; 2 h)?
Answer: 0.46

Question: And the “Absorbance, formation” value (diaphorase [7]; 3 h)?
Answer: 0.48

Question: What about the “Absorbance, formation” value (diaphorase [7]; 4 h) of the same compound?
Answer: 0.43

Question: And the “Absorbance, formation” value (diaphorase [7]; 6 h)?
Answer: 0.46

Question: What about the “Absorbance, formation” value (diaphorase [7]; 8 h) of the same compound?
Answer: 0.44

Question: What about the “Absorbance, formation” value (diaphorase [7]; 10 h) of the same compound?
Answer: 0.44

Question: And the “Absorbance, formation” value (diaphorase [7]; 12 h)?
Answer: 0.47

Question: What about the “Absorbance, formation” value (diaphorase [8]; 0 h) of the same compound?
Answer: 0.10

Question: What about the “Absorbance, formation” value (diaphorase [8]; 1 h) of the same compound?
Answer: 0.14

Question: What about the “Absorbance, formation” value (diaphorase [8]; 2 h) of the same compound?
Answer: 0.16

Question: And the “Absorbance, formation” value (diaphorase [8]; 3 h)?
Answer: 0.19

Question: And the “Absorbance, formation” value (diaphorase [8]; 4 h)?
Answer: 0.21

Question: What about the “Absorbance, formation” value (diaphorase [8]; 6 h) of the same compound?
Answer: 0.26

Question: What about the “Absorbance, formation” value (diaphorase [8]; 8 h) of the same compound?
Answer: 0.31

Question: And the “Absorbance, formation” value (diaphorase [8]; 10 h)?
Answer: 0.35

Question: What about the “Absorbance, formation” value (diaphorase [8]; 12 h) of the same compound?
Answer: 0.38

Question: What about the “formation of formazan dyes / precipitates with 1-methoxy PMS and NADH” value [9] of the same compound?
Answer: converted to formazan dyes quickly

Question: And the “Absorbance, formation” value ([9]; monosodium salt)?
Answer: 3.65 and 3.66 and 3.67

Question: And the “Absorbance, formation” value [10]?
Answer: 3.37 and 3.42 and 3.41

Question: And the “Absorbance, formation” value (oral lavage [11])?
Answer: 1.03 and 1.38 and 1.68 and 1.86

Question: What about the “Absorbance, formation” value [12] of the same compound?
Answer: 0.44 and 0.55 and 0.49 and 0.62

Question: And the “Means absorbance 0 h” value [13]?
Answer: 0.19

Question: And the “Means absorbance 1 h” value [13]?
Answer: 0.20

Question: What about the “Means absorbance 2 h” value [13] of the same compound?
Answer: 0.23

Question: And the “Means absorbance 3 h” value [13]?
Answer: 0.26

Question: And the “concentration of tetrazolium salt at which absorbance reached peaks” value (diaphorase [14])?
Answer: 2 mM

Question: What about the “reduction by malate dehydrogenase alone” value (Malate dehydrogenase) of the same compound?
Answer: did not catalyze the reduction

Question: What about the “Absorbance, formation” value (Malate dehydrogenase; monosodium salt) of the same compound?
Answer: 0.35 and 0.47
